# Results published in PubChem BioAssay (NCI).
# Values joined by “and” are separate entries in the source; they are usually repeats but may differ in a detail not shown here. Identical values can stand only once.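 In this assay, cells in 96-well plates receive the compound at five concentrations for 48 hours. Endpoints are linearly interpolated between the surrounding concentrations. At the GI50, growth is halved. At the TGI there is no net growth.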
# Columns and labels:
# Assay in all cases: inhibition of tumour cell growth, NCI panel, 48 h
# 786-0 renal = tested on: 786-0 renal
# CAKI-1 renal = tested on: CAKI-1 renal
# CCRF-CEM leukemia = tested on: CCRF-CEM leukemia
# HL-60(TB) leukemia = tested on: HL-60(TB) leukemia
# MDA-MB-231 breast = tested on: MDA-MB-231 breast
# SF-539 CNS = tested on: SF-539 CNS
# SK-MEL-2 melanoma = tested on: SK-MEL-2 melanoma
# SNB-19 CNS = tested on: SNB-19 CNS
# U251 CNS = tested on: U251 CNS
# UACC-62 melanoma = tested on: UACC-62 melanoma
Compound,GI50 (786-0 renal),TGI (786-0 renal),GI50 (CAKI-1 renal),TGI (CAKI-1 renal),GI50 (CCRF-CEM leukemia),TGI (CCRF-CEM leukemia),GI50 (HL-60(TB) leukemia),TGI (HL-60(TB) leukemia),GI50 (MDA-MB-231 breast),TGI (MDA-MB-231 breast),GI50 (SF-539 CNS),TGI (SF-539 CNS),GI50 (SK-MEL-2 melanoma),TGI (SK-MEL-2 melanoma),GI50 (SNB-19 CNS),TGI (SNB-19 CNS),GI50 (U251 CNS),TGI (U251 CNS),GI50 (UACC-62 melanoma),TGI (UACC-62 melanoma)
CC(C)c1ccc(C(C)C(=O)N(CC2=C(C(C)c3ccccn3)c3ccccc3C2)C(C)C)cc1 (stereo unspecified),3.14 µM,11.5 µM,1.76 µM,6.73 µM,3.25 µM,22 µM,2.15 µM,5.44 µM,3.47 µM,22.7 µM,5.62 µM,26.7 µM,2.55 µM,7.15 µM,6.66 µM,> 100 µM,2.85 µM,13.6 µM,8.79 µM,37.6 µM
COC(=O)Nc1nc2ccc(S(=O)c3ccccc3)cc2[nH]1 (stereo unspecified),5.2 µM,> 100 µM,4.99 µM,> 100 µM,5.16 µM,> 100 µM,2.44 µM,6.5 µM,7.45 µM,> 100 µM,4.64 µM,58.5 µM,3.29 µM,> 100 µM,6.12 µM,> 100 µM,4.45 µM,> 100 µM,4.44 µM,> 100 µM
CC1=C(C(=O)Nc2ccc(F)c(Cl)c2)C(c2ccc(Cl)cc2)NC(=O)N1 (stereo unspecified),16.5 µM,31.7 µM,21 µM,71.2 µM,15.3 µM,38.8 µM,0.083 µM,1.87 µM,13.7 µM,27.1 µM,14 µM,29.7 µM,19.1 µM,35.3 µM,33.1 µM,> 100 µM,16.7 µM,33.2 µM,14.1 µM,27.2 µM
C[C@@H](CS(C)(=O)=O)Nc1ncc2cc(Oc3ccc(F)cc3F)c(=O)n(C)c2n1,> 25 µM,> 25 µM,> 25 µM,> 25 µM,> 25 µM,> 25 µM,> 25 µM,> 25 µM,> 25 µM,> 25 µM,> 25 µM,> 25 µM,> 25 µM,> 25 µM,> 25 µM,> 25 µM,> 25 µM,> 25 µM,> 25 µM,> 25 µM
CC(=O)[O][Hg][c]1c(N)c(C)cc(C)c1F,1.79 µM,3.32 µM,3.4 µM,12.4 µM,0.401 µM,> 24.3 µM,1.44 µM,5.17 µM,1.17 µM,2.64 µM,1.57 µM,3.11 µM,1.56 µM,3.23 µM,1.99 µM,5.13 µM,0.672 µM,2.06 µM,1.5 µM,3.2 µM
COc1cc2nc(C)nc(N[C@H](C)c3cc(N)cc(C(F)(F)F)c3)c2cc1O[C@H]1CCOC1,9.82 µM,23.1 µM,7.14 µM,24.1 µM,13.5 µM,49.3 µM,14 µM,39.2 µM,12.1 µM,28.6 µM,12.4 µM,25.1 µM,18 µM,34.7 µM,12.7 µM,27.4 µM,10.6 µM,23.7 µM,16.3 µM,31 µM
O=C1c2cccnc2-c2nc(-c3ccccc3[N+](=O)[O-])cc3c2c1nc1ccccc13,14.7 µM,35.1 µM,18 µM,43.3 µM,> 100 µM,> 100 µM,> 100 µM,> 100 µM,3.89 µM,> 100 µM,6.3 µM,24.3 µM,10.3 µM,53.1 µM,24.2 µM,84.7 µM,4 µM,19.6 µM,9.9 µM,40.9 µM
COc1ccc(C2=CSc3cc(Cl)c(C)cc3S(=O)(=O)N2C(C)=O)cc1,39.1 µM,> 100 µM,11.5 µM,32.9 µM,38.6 µM,> 100 µM,17.2 µM,43.7 µM,14.5 µM,37.9 µM,33 µM,78.6 µM,63.4 µM,> 100 µM,36.3 µM,> 100 µM,21.2 µM,55.8 µM,13.1 µM,48 µM
Cc1nc2c(nc1C)C(=O)c1ccccc1C2=O,–,47.1 µM,–,61.9 µM,–,46.9 µM,–,13.7 µM,–,35.6 µM,–,11.2 µM,–,6.57 µM,–,19.4 µM,–,34.6 µM,–,2.42 µM
Cc1cnc(NC(=O)C(Cc2ccccc2)NC(=O)c2ccccc2)s1 (stereo unspecified),15.1 µM,76.2 µM,33 µM,> 100 µM,34.7 µM,> 100 µM,21.2 µM,51.5 µM,6.42 µM,27.1 µM,14.2 µM,31.1 µM,–,–,19 µM,48.6 µM,5.25 µM,19.3 µM,1.45 µM,3.7 µM
COc1cc(C(=O)/C=C/c2sc(Cl)nc2Cl)cc(OC)c1OC,1.84 µM,3.42 µM,1.61 µM,2.99 µM,1.91 µM,4.95 µM,1.82 µM,4.45 µM,1.65 µM,3.07 µM,1.72 µM,3.12 µM,2.39 µM,5.86 µM,1.72 µM,3.18 µM,1.88 µM,3.69 µM,1.86 µM,3.61 µM
CC[C@@]12CCCN3CC[C@]4(c5cccc(OC)c5N(C(C)=O)[C@@H]4CC1)[C@H]32,–,> 100 µM,–,> 100 µM,–,57.1 µM,–,44.6 µM,–,> 100 µM,–,> 100 µM,–,> 100 µM,–,> 100 µM,–,> 100 µM,–,> 100 µM
COC(=O)[C@@H](C)C[C@H](Cc1ccc(F)cc1)NC(=O)c1csc([C@@H](C[C@H](C(C)C)N(C)C(=O)[C@@H](NC(=O)[C@H]2CCCCN2C)C(C)C)OC(C)=O)n1,0.00319 µM and 0.0147 µM,> 16.7 µM,–,–,0.000973 µM and 0.00639 µM,> 16.7 µM,–,0.00229 µM and 0.00952 µM,0.0023 µM and 0.0158 µM,–,0.00153 µM and 0.00714 µM,–,0.000792 µM and 0.00503 µM,> 16.7 µM,–,> 16.7 µM,0.00151 µM and 0.00914 µM,> 16.7 µM,–,> 16.7 µM
Fc1ccc(Nc2ncnc3ccc(-c4cnc5[nH]ccc5c4)cc23)cc1Cl,1.57 µM,3.27 µM,0.502 µM,19.5 µM,7.83 µM,> 100 µM,7.76 µM,40.1 µM,2.03 µM,6.06 µM,2.3 µM,7.65 µM,16.6 µM,68.2 µM,1.94 µM,5.94 µM,2.17 µM,6.2 µM,6.06 µM,63.3 µM
NC(CSC(c1ccccc1)(c1ccccc1)c1ccc2c(c1)OCO2)C(=O)O (stereo unspecified),2.96 µM,> 89.4 µM,5.14 µM,> 100 µM,0.306 µM,> 41.5 µM,0.313 µM,0.836 µM,0.365 µM,14.4 µM,0.392 µM,> 41 µM,0.511 µM,27.4 µM,0.665 µM,> 100 µM,0.405 µM,> 74.5 µM,0.57 µM,> 62.9 µM
COc1cc2nc(-c3ccc(C(F)(F)F)cc3)cc(OCCCN3CCC(O)CC3)c2cc1OC,4.72 µM,19.8 µM,0.376 µM,13.1 µM,3.27 µM,17.7 µM,13.9 µM,31.9 µM,0.919 µM,15.6 µM,5.75 µM,20.8 µM,3.85 µM,16.5 µM,10.5 µM,28.3 µM,2.12 µM,20.6 µM,2.61 µM,7.28 µM
CSc1ccccc1C#C/C=C\C#Cc1ccccc1N1CCCC1=O,> 22 µM,> 50 µM,> 10.3 µM,> 50 µM,–,> 50 µM,2.43 µM,–,–,> 50 µM,> 11.4 µM,> 50 µM,–,> 50 µM,> 11 µM,> 50 µM,> 11 µM,> 50 µM,–,> 50 µM
Cc1cc(=O)n2[nH]c(-c3ccc(C(C)(C)C)cc3)cc2n1,10.3 µM,> 100 µM,2.6 µM,32.7 µM,4.19 µM,> 100 µM,6.9 µM,93.8 µM,13 µM,> 100 µM,9.01 µM,> 100 µM,10.5 µM,65.5 µM,10.1 µM,> 100 µM,3.24 µM,64.5 µM,3.83 µM,> 100 µM
COc1ccc(-c2cc(-c3ccc(Nc4nc(Nc5ccccc5)nc(Nc5ccc(Cl)cc5)n4)cc3)nc(N)c2C#N)cc1,1.05 µM,2.06 µM,0.705 µM,1.49 µM,1.7 µM,> 50 µM,1.15 µM,6.41 µM,1.01 µM,2.46 µM,0.857 µM,1.77 µM,1.09 µM,2.66 µM,> 24.8 µM,> 50 µM,1.23 µM,3.68 µM,1.47 µM,6.73 µM
O=c1n(CC2CO2)c(=O)n(CC2CO2)n1CC1CO1 (stereo unspecified),4.78 µM,> 83.2 µM,2.22 µM,21.7 µM,3.27 µM,> 80.2 µM,4.99 µM,> 49.4 µM,> 96.4 µM,> 100 µM,4.89 µM,> 54.3 µM,> 73.5 µM,> 100 µM,14.2 µM,> 100 µM,10.9 µM,> 100 µM,6.51 µM,> 64.1 µM
COc1cc2c(c(OC)c1O)C(=O)C(OC)C(c1ccc(O)c(O)c1)O2 (stereo unspecified),1.05 µM,> 100 µM,0.336 µM,> 100 µM,0.428 µM,> 31 µM,0.072 µM,3.62 µM,0.554 µM,> 100 µM,0.0798 µM,4.56 µM,1.28 µM,> 100 µM,0.275 µM,> 100 µM,0.418 µM,> 100 µM,0.345 µM,> 100 µM
CCCCCCCCSC1=CC(=O)c2nc3ccccc3c3ccnc1c23,> 100 µM,> 100 µM,59.8 µM,> 100 µM,60.7 µM,> 100 µM,16.3 µM,> 100 µM,5.94 µM,> 100 µM,> 100 µM,> 100 µM,> 100 µM,> 100 µM,> 100 µM,> 100 µM,92.6 µM,> 100 µM,42 µM,> 100 µM
Cn1ccnc1C(=O)/C=C/c1ccc(CC(=O)Nc2ccc(Br)cc2)cc1,2.77 µM,5.92 µM,3.59 µM,11.6 µM,3.04 µM,> 16.7 µM,4.58 µM,> 16.7 µM,4.78 µM,15.6 µM,2.43 µM,4.81 µM,> 16.7 µM,> 16.7 µM,2.61 µM,5.75 µM,1.97 µM,4.51 µM,2.8 µM,5.73 µM
O=C(NCCNc1nccc(-c2c(-c3cccc(O)c3)nc3sccn23)n1)c1ccccc1O,6.25 µM,43.1 µM,3.23 µM,21.8 µM,1.21 µM,19.4 µM,3.38 µM,> 29.4 µM,2.87 µM,32 µM,7.27 µM,24.5 µM,1.59 µM,6.09 µM,12.6 µM,> 78.7 µM,4.9 µM,> 47.6 µM,0.181 µM,4.91 µM
O=C(Nc1ccc(I)cc1)c1cc([N+](=O)[O-])ccc1O,6.4 µM,> 100 µM,5.39 µM,> 100 µM,3.69 µM,50.1 µM,5.44 µM,57.8 µM,10 µM,53.1 µM,11.4 µM,80 µM,3.54 µM,20.1 µM,5.5 µM,> 100 µM,6.4 µM,66.1 µM,3.38 µM,14.1 µM
Cc1ccc(-c2nnc(-c3ccc4ccccc4c3)o2)cc1,–,> 100 µM,–,> 86.8 µM,–,> 25 µM,–,> 21.9 µM,–,> 100 µM,–,> 60.2 µM,–,> 32.6 µM,–,> 100 µM,–,> 100 µM,–,> 85.6 µM
